For test [1], the target named is Apoptosis regulator Bcl-2 (Homo sapiens, UniProt P10415). Kind of test: Inhibition of Bcl2 (unknown origin)/Bim interaction preincubated for 5 mins followed by fluorescein-labeled peptide addition and measured after 10 mins by fluorescein-labeled peptide displacement based fluorescence polarization assay. A general note: Fluorescence polarisation rises when a labelled molecule tumbles more slowly, as on binding a larger partner.

In test [2] the target is Induced myeloid leukemia cell differentiation protein Mcl-1 (Homo sapiens, UniProt Q07820). In words: Inhibition of Mcl-1 (unknown origin)/Bid interaction preincubated for 5 mins followed by fluorescein-labeled peptide addition and measured after 10 mins by fluorescein-labeled peptide displacement based fluorescence polarization assay.
A further test has as its target Bcl-2-like protein 1 (Homo sapiens, UniProt Q07817). In words: Inhibition of Bcl-xL (unknown origin)/Bak interaction preincubated for 5 mins followed by fluorescein-labeled peptide addition and measured after 10 mins by fluorescein-labeled peptide displacement based fluorescence polarization assay.
Another test concerns MCF7. Kind of test: Antiproliferative activity against human MCF7 cells assessed as cell death. The format is functional, cell-based.
The next test has as its system A549. Kind of test: Antiproliferative activity against human A549 cells assessed as cell death. It is filed as functional, cell-based.

A word on the Ki: it is the equilibrium dissociation constant of an inhibitor or competing ligand from its target. Usually IC50 stands for the concentration that gives 50% inhibition.

SMILES strings stand for the structures. Bounds are passed on as bounds.

Chain of Induced myeloid leukemia cell differentiation protein Mcl-1 (Q07820 whole entry): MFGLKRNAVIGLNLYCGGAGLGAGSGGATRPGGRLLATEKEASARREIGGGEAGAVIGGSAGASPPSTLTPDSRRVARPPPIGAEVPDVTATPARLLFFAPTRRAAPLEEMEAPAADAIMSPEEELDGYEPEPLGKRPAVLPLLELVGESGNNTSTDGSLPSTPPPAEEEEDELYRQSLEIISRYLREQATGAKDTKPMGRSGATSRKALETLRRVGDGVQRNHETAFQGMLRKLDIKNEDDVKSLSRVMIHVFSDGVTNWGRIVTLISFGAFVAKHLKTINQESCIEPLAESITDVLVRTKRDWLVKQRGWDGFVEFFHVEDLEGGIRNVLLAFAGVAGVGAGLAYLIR
Chain of Apoptosis regulator Bcl-2 (P10415 whole entry): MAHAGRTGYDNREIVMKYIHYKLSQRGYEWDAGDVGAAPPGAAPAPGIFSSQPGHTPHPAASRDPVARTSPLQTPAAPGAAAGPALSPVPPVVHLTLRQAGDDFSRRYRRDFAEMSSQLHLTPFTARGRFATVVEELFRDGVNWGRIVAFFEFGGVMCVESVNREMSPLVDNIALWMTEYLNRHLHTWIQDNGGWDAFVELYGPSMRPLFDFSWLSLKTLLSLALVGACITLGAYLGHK
Chain of Bcl-2-like protein 1 (Q07817 whole entry): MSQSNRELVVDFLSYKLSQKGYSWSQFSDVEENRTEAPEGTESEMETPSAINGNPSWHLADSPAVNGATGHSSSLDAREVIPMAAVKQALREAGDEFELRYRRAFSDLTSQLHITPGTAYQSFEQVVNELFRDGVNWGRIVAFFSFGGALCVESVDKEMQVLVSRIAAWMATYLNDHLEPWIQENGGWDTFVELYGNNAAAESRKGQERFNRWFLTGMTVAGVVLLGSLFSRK

On to `CON(C)C(=O)[C@@H]1CC=C(CCC=C(C)C)C[C@H]1c1ccccc1`, for which the Ki in test [1] is above 23 µM; in test [2], above 33 µM; on Bcl-2-like protein 1, above 23 µM.

Take `COC(=O)c1ccc(NC(=O)[C@@H]2CC=C(CCC=C(C)C)C[C@H]2c2ccccc2)cc1`: the figures for the Ki (in test [1]; in test [2]; on Bcl-2-like protein 1) were above 23 µM, above 33 µM and above 23 µM, respectively.

With `CC(C)=CCCC1=CC[C@@H](C(=O)NCCC(=O)O)[C@H](c2ccccc2)C1`, the figures for the Ki (in test [1]; in test [2]; at Bcl-2-like protein 1) were above 23 µM, above 33 µM and above 23 µM, respectively.

Regarding `CC(C)=CCCC1=CC[C@H](C(=O)Nc2ccc(C(=O)O)cc2)[C@@H](c2ccccc2)C1`, the Ki in test [1] is above 23 µM; in test [2], 8.5 µM; at Bcl-2-like protein 1, above 23 µM.

`CC(C)=CCCC1=CC[C@H](C(=O)NO)[C@@H](c2ccccc2)C1`: the figures for the Ki (in test [1]; in test [2]; at Bcl-2-like protein 1) were 0.6 µM, 7.3 µM and 19 µM, respectively. Further, the results for the IC50 in the test with MCF7 and in the test on A549 were 72.3 µM and 71.7 µM, respectively.

`CC(C)=CCCC1=CC[C@H](C(N)=O)[C@@H](c2ccccc2)C1`: the Ki in test [1] was above 23 µM; in test [2], above 33 µM; at Bcl-2-like protein 1, above 23 µM.

On to `CC(C)=CCCC1=CC[C@@H](C(=O)N(C)C)[C@H](c2ccccc2)C1`, for which the Ki in test [1] was above 23 µM; in test [2] it was above 33 µM; at Bcl-2-like protein 1, above 23 µM.

Turning to `COc1ccc(NC(=O)[C@@H]2CC=C(CCC=C(C)C)C[C@H]2c2ccccc2)cc1`, the Ki in test [1] was above 23 µM; in test [2], above 33 µM; on Bcl-2-like protein 1, above 23 µM.

Consider `COC(=O)CCNC(=O)[C@H]1CC=C(CCC=C(C)C)C[C@@H]1c1ccccc1`, for which the Ki in test [1] is 3.1 µM; in test [2] it was 5.5 µM; at Bcl-2-like protein 1, above 23 µM. Further, the IC50 was 96.8 µM in the test on MCF7 and 87.9 µM with A549.

`CC(C)=CCCC1=CC[C@H](C(=O)N(C)C)[C@@H](c2ccccc2)C1`: the Ki in test [1] is above 23 µM; in test [2], 5.4 µM; on Bcl-2-like protein 1, 20.1 µM.

Take `CC1(C)CCCC2=C1C[C@H](C(=O)O)[C@@H](c1ccccc1)C2`: the Ki in test [1] is above 23 µM; in test [2], 9 µM; on Bcl-2-like protein 1, above 23 µM.

Turning to `COC(=O)c1ccc(NC(=O)[C@H]2CC=C(CCC=C(C)C)C[C@@H]2c2ccccc2)cc1`, the Ki was above 23 µM in test [1], above 33 µM in test [2] and above 23 µM at Bcl-2-like protein 1.

Consider `CCCCCC[C@H]1C(=O)O[C@H](C)[C@H](NC(=O)c2cccc(NC=O)c2O)C(=O)O[C@@H](C)[C@@H]1OC(=O)CC(C)C` [ANTIMYCIN A], for which the IC50 in the test with A549 amounted to 6.5 µM.

On to `CON(C)C(=O)[C@H]1CC2=C(CCCC2(C)C)C[C@@H]1c1ccccc1`, for which the results for the Ki (in test [1]; in test [2]; at Bcl-2-like protein 1) were above 23 µM, 18.9 µM and above 23 µM, respectively.

As to `CC(C)=CCCC1=CC[C@H](C(=O)N(C)O)[C@@H](c2ccccc2)C1`, the Ki in test [1] is 2.1 µM; in test [2], 7.2 µM; at Bcl-2-like protein 1, above 23 µM.

On to `CC(C)=CCCC1=CC[C@H](C(=O)O)[C@@H](c2ccccc2)C1`, for which the results for the Ki (in test [1]; in test [2]; at Bcl-2-like protein 1) were above 23 µM, 4 µM and 5.7 µM, respectively. Also, the results for the IC50 with MCF7 and in the test on A549 were 64.3 µM and 53.7 µM, respectively.

Take `COC(=O)CCNC(=O)[C@@H]1CC=C(CCC=C(C)C)C[C@H]1c1ccccc1`: the Ki was above 23 µM in test [1], 15 µM in test [2] and above 23 µM at Bcl-2-like protein 1.

In the case of `CC(C)=CCCC1=CC[C@H](C(=O)Nc2ccc(O)cc2)[C@@H](c2ccccc2)C1`, the Ki was above 23 µM in test [1], above 33 µM in test [2] and above 23 µM on Bcl-2-like protein 1. For the same molecule, the IC50 was found to be 66.7 µM with MCF7 and 66.8 µM in the test with A549.

With `CC(C)=CCCC1=CC[C@@H](C(=O)Nc2ccc(C(=O)O)cc2)[C@H](c2ccccc2)C1`, the Ki in test [1] is 2.2 µM; in test [2], above 33 µM; at Bcl-2-like protein 1 it was above 23 µM.

With `CC(C)=CCCC1=CC[C@@H](C(=O)Nc2ccc(O)cc2)[C@H](c2ccccc2)C1`, the Ki in test [1] is above 23 µM; in test [2], above 33 µM; on Bcl-2-like protein 1, above 23 µM.

Turning to `CON(C)C(=O)[C@@H]1CC2=C(CCCC2(C)C)C[C@H]1c1ccccc1`, the Ki in test [1] was above 23 µM; in test [2] it was 15 µM; at Bcl-2-like protein 1 it was above 23 µM.

`CON(C)C(=O)[C@H]1CC=C(CCC=C(C)C)C[C@@H]1c1ccccc1`: the Ki was 0.3 µM in test [1], 0.9 µM in test [2] and above 23 µM at Bcl-2-like protein 1. Moreover, the figures for the IC50 in the test with MCF7 and in the test with A549 were 42.1 µM and 31.2 µM, respectively.

As to `CC(C)=CCCC1=CC[C@@H](C(=O)NO)[C@H](c2ccccc2)C1`, the values for the Ki (in test [1]; in test [2]; on Bcl-2-like protein 1) were 0.7 µM, 8.2 µM and 17.4 µM, respectively.

For the molecule `CC(C)=CCCC1=CC[C@@H](C(=O)O)[C@H](c2ccccc2)C1`, the inhibition constant Ki in test [1] is above 23 µM; in test [2], 8.6 µM; at Bcl-2-like protein 1 it was 9.6 µM.

As to `COc1ccc(NC(=O)[C@H]2CC=C(CCC=C(C)C)C[C@@H]2c2ccccc2)cc1`, the figures for the Ki (in test [1]; in test [2]; on Bcl-2-like protein 1) were above 23 µM, above 33 µM and above 23 µM, respectively.

Regarding `CC(C)=CCCC1=CC[C@@H](C(=O)N(C)O)[C@H](c2ccccc2)C1`, the Ki in test [1] was 2.3 µM; in test [2], 9.2 µM; at Bcl-2-like protein 1, above 23 µM.

For `CC(C)=CCCC1=CC[C@H](C(=O)NCCC(=O)O)[C@@H](c2ccccc2)C1`, the Ki was above 23 µM in test [1], above 33 µM in test [2] and above 23 µM on Bcl-2-like protein 1.

As to `CC1(C)CCCC2=C1C[C@@H](C(=O)O)[C@H](c1ccccc1)C2`, the inhibition constant (Ki) in test [1] was above 23 µM; in test [2] it was above 33 µM; on Bcl-2-like protein 1 it was above 23 µM.

Take `CONC(=O)[C@H]1CC=C(CCC=C(C)C)C[C@@H]1c1ccccc1`: the Ki in test [1] was 2.4 µM; in test [2], 16.6 µM; at Bcl-2-like protein 1, above 23 µM. The IC50 in the test on MCF7 was 45.2 µM; in the test with A549, 42.2 µM.

As to `CONC(=O)[C@@H]1CC=C(CCC=C(C)C)C[C@H]1c1ccccc1`, the figures for the Ki (in test [1]; in test [2]; at Bcl-2-like protein 1) were 2.7 µM, above 33 µM and above 23 µM, respectively.

Take `CC(C)=CCCC1=CC[C@@H](C(N)=O)[C@H](c2ccccc2)C1`: the Ki in test [1] is above 23 µM; in test [2] it was above 33 µM; at Bcl-2-like protein 1, above 23 µM.

Source of the values: ChEMBL document CHEMBL4616621, “Pro-apoptotic carboxamide analogues of natural fislatifolic acid targeting Mcl-1 and Bcl-2” (Bioorg Med Chem Lett, 2020).
